The source of these data is US20220273659A1, “HETEROCYCLIC COMPOUNDS AS KINASE INHIBITORS” (NUVATION BIO INC., priority 2019, published 2022).

Where two headings read alike, the source gives them in different places. Some results are limits rather than exact numbers.

The target in assay [1] is T1, CDK2 (cyclin A) (Homo sapiens, UniProt P24941).
T1 construct: purchased Invitrogen Life Technologies (assay service)
As to the kind of experiment: Z'-LYTE kinase assay. In kind it is biochemical. The essentials: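 FRET-based Z′-LYTE read-out using 1.22–10.3 ng CDK2/cyclin A with Ser/Thr 12 peptide (2 μM in the 2× mix) and ATP (31 μM as the 4× solution), in HEPES pH 7.5, MgCl2, EGTA and BRIJ-35, for 60 min at room temperature. After 1 h of development, the 445/520 nm emission was read, and percent inhibition was fitted to a four-parameter logistic curve for IC50.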

In assay [2] the target is T2, CDK1 (cyclin B) (Homo sapiens, UniProt P06493).
T2 construct: purchased Invitrogen Life Technologies (assay service)
As to the kind of experiment: Z'-LYTE kinase assay. The class given is biochemical. How it is done:
The plates were shaken for 30 seconds, and incubated for 60 minutes at room temperature. […] The plates were read on fluorescence plate reader with Dual emission at 445 nm and 520 nm.
The following equations were used for Z′-LYTE™ Screening Assay Data Analysis.

Assay [3] has as its target T3, CDK4 (Homo sapiens, UniProt P11802).
T3 construct: purchased Invitrogen PR8064A
The assay is described as follows: In vitro kinase inhibition IC50, luminescence (ADP Glo), retinoblastoma substrate. To be noted: read-out: CDK4/D1 IC50. In kind it is biochemical. The essentials:
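CDK4 enzyme (5 nM, Invitrogen) was combined with test compound and a mix of retinoblastoma substrate (1 μM) plus ATP (25 μM) in kinase buffer, 30 μL/well in 96-well half area white plates. After 2H at room temperature, ADP Glo reagent stopped the reaction for 45 min, then detection reagent was added and luminescence was read.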

Assay [4] has as its target T4, CDK6 (Homo sapiens, UniProt Q00534).
T4 construct: purchased Invitrogen PR8422B
Described as above. In kind it is biochemical. To be noted: read-out: CDK6/D1 IC50. The gist of the method: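 Recombinant CDK6 (5 nM) with retinoblastoma substrate (1 μM) and 25 μM ATP, compound at final 0.1–200 nM, incubated 2 h at room temperature. ADP formed detected by ADP-Glo luminescence. IC50 from four-parameter logistic fit of percent inhibition.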

Assay [5] has as its target T5, FMS kinase (Homo sapiens, UniProt P07333).
T5 construct: purchased Invitrogen (Life Technologies)
The assay is described as follows: LanthaScreen Eu Kinase Binding Assay (ATP, fluorescent-PolyGT substrate). In kind it is biochemical. The gist of the method: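 Kinase (1.25 nM) preincubated 10 min with 3-fold compound dilutions, then ATP 10 μM and fluorescent PolyGT substrate 200 nM added for 1 h in the dark at room temperature. Stopped with Tb-antibody (4 nM) and EDTA 20 mM; TR-FRET at 340 nm excitation, 495/520 nm emission; IC50 from four-parameter fit.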

For assay [6], the system named is DU4475 breast carcinoma cells. The assay is described as follows: Cancer cell proliferation assay, single agent (cell viability). In kind it is cell-based. As to conditions: Homo sapiens, DU-4475; Table 4; Rb negative; treatment 144 Hr with medium change at 72 Hr; Cell Titer-Glo or resazurin. The gist of the method: (§1)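 Cells seeded day 1, then exposed on day 2 to 7–9 compound concentrations (e.g. 1.1 nM–10 μM); BT-549 for 24 h, MCF-7 and DU4475 for 144 h with medium change at 72 h. Viability by CellTiter-Glo or resazurin; IC50 from variable-slope sigmoidal fit.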
On the technique in general: ATP-based viability assays read luminescence as a measure of living cells.

The test system of assay [7] is MCF-7 breast adenocarcinoma cells. The assay is described as above. In kind it is cell-based. To be noted: Homo sapiens. The essentials: as §1
Where [8] appears, read: MCF7, Table 4, Rb positive, treatment 144 Hr with medium change at 72 Hr, Cell Titer-Glo or resazurin.
Setting [9] is: MCF7, Table 5, parental, non-resistant cell line compared with MCF-7-PR.

T4 sequence (Q00534 whole entry): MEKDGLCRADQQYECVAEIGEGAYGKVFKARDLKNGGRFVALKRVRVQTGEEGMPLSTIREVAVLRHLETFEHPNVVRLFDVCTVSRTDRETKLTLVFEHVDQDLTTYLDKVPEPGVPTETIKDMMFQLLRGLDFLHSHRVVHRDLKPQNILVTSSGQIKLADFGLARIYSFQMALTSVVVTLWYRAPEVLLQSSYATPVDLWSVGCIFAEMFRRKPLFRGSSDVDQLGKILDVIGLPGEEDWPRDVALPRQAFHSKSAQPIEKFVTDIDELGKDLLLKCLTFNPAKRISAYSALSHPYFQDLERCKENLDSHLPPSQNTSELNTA
T4 sequence (P24385 whole entry partner): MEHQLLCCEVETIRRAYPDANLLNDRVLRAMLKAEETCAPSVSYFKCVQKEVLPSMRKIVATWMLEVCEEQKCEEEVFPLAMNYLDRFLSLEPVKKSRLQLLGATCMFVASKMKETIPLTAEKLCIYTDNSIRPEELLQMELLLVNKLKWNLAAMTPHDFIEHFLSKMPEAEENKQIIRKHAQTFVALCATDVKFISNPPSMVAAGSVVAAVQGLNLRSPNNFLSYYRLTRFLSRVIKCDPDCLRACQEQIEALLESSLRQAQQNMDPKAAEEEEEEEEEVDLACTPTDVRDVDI
T3 sequence (P11802 whole entry): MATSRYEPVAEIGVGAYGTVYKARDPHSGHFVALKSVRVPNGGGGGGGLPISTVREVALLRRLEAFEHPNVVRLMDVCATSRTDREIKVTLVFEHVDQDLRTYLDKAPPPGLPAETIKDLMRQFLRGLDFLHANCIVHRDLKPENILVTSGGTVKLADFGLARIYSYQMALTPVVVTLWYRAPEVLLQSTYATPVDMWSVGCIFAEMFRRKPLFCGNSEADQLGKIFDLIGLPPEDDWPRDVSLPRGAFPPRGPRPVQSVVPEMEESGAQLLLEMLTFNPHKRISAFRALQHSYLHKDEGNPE
T3 sequence (P24385 whole entry partner): as the sequence (P24385 whole entry partner) above
T2 sequence (P06493 whole entry): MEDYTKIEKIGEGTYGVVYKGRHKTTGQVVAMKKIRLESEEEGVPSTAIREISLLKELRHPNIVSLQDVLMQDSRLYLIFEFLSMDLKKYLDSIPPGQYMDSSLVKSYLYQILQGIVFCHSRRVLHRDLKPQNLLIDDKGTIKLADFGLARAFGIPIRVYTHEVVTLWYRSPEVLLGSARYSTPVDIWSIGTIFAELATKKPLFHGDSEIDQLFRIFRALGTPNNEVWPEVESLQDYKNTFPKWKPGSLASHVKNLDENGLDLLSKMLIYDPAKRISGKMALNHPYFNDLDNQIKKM
T2 sequence (P14635 whole entry partner): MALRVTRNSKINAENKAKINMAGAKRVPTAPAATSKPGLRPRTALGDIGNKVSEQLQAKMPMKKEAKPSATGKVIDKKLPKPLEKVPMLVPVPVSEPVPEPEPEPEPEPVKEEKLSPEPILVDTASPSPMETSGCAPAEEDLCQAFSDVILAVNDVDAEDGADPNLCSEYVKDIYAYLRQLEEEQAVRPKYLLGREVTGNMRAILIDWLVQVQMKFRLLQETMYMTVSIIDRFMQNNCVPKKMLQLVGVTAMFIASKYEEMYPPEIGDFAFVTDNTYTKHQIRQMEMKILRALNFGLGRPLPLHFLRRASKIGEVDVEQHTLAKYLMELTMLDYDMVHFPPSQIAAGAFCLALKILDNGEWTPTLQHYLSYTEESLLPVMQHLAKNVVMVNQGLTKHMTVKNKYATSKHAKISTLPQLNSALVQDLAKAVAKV
T5 sequence (P07333 20-972): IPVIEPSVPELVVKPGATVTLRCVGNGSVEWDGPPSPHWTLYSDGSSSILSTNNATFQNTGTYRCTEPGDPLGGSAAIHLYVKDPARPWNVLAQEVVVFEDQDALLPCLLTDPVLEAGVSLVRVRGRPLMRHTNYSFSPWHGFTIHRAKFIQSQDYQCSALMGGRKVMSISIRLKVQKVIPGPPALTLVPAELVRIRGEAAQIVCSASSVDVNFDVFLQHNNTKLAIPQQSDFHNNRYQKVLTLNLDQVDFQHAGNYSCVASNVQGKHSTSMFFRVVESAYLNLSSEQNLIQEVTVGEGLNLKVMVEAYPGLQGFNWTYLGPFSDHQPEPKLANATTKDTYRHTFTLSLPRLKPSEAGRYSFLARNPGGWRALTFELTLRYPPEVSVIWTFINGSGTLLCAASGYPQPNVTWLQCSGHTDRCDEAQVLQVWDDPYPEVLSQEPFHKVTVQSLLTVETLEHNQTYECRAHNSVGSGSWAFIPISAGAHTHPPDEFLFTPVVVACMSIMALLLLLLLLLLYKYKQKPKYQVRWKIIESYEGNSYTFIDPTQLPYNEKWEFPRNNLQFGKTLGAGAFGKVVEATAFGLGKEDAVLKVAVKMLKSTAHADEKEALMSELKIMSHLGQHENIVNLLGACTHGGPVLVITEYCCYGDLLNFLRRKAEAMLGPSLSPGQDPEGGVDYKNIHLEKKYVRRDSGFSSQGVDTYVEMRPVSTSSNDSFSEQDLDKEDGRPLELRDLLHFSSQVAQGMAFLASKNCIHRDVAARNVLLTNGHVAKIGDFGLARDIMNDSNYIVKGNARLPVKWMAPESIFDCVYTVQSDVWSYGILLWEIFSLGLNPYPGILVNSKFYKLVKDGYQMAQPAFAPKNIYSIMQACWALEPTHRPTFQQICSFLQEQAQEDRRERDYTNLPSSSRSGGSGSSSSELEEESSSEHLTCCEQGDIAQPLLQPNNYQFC

On to `N#Cc1cc2cnc(Nc3ccc4c(c3)CCNC4)nc2n(C2CCCC2)c1=O` [Compound No. 31, 8-cyclopentyl-7-oxo-2-((1,2,3,4-tetrahydroisoquinolin-6-yl)amino)-7,8-dihydropyrido[2,3-d]pyrimidine-6-carbonitrile], for which the IC50 in assay [1] amounted to 32 nM; in assay [2] (read-out: CDK1/B IC50), 481 nM; in assay [3], 5 nM; in assay [4], 9 nM; in assay [5], 1 nM; in assay [6], 525 nM. The IC50 amounted to 130 nM in assay [7] (setting [8]) and 157 nM in assay [7] (setting [9]).

Consider `N#Cc1cc2cnc(Nc3ccc(N4CCNCC4)c(F)c3)nc2n(C2CCCC2)c1=O` [Compound No. 13, 8-cyclopentyl-2-((3-fluoro-4-(piperazin-1-yl)phenyl)amino)-7-oxo-7,8-dihydropyrido[2,3-d]pyrimidine-6-carbonitrile], for which the IC50 in assay [3] is 3.5 nM; in assay [4] it was 1.5 nM; in assay [5], below 1 nM; in assay [7] (setting [8]), 158 nM; in assay [7] (setting [9]), 119 nM.

Consider `CS(=O)(=O)N1CCC(Nc2ncc3cc(C#N)c(=O)n(C4CC5CC5C4)c3n2)CC1` (stereo not drawn) [Compound No. 341, 8-(bicyclo[3.1.0]hexan-3-yl)-2-((1-(methylsulfonyl)piperidin-4-yl)amino)-7-oxo-7,8-dihydropyrido[2,3-d]pyrimidine-6-carbonitrile], for which the IC50 is 7 nM in assay [1]; 197 nM in assay [2] (read-out: CDK1/B IC50); 3.5 nM in assay [3]; 8.5 nM in assay [4]; 166 nM in assay [5]; 940 nM in assay [6]. The values for the IC50 in assay [7] (setting [8]) and in assay [7] (setting [9]) were 835 nM and 487 nM, respectively.

As for `CS(=O)(=O)N1CCC(Nc2ncc3cc(C#N)c(=O)n(C4CCCC4)c3n2)CC1` [Compound No. 93, 8-cyclopentyl-2-((1-(methylsulfonyl)piperidin-4-yl)amino)-7-oxo-7,8-dihydropyrido[2,3-d]pyrimidine-6-carbonitrile], the IC50 in assay [1] was found to be 2.5 nM; in assay [2] it was 53 nM; in assay [3], 2.6 nM; in assay [4] it was 4 nM; in assay [6], 793 nM; in assay [7] (setting [8]), 2000 nM. Moreover, in assay [7] (setting [9]), the IC50 turned out to be 558 nM.

For `CS(=O)(=O)N1CCC(Nc2ncc3cc(C#N)c(=O)n(C4CCC(F)(F)C4)c3n2)CC1` (racemic) [Compound No. 345, 8-(3,3-difluorocyclopentyl)-2-((1-(methylsulfonyl)piperidin-4-yl)amino)-7-oxo-7,8-dihydropyrido[2,3-d]pyrimidine-6-carbonitrile], the IC50 in assay [1] was determined as 30 nM; in assay [2] it was 1110 nM; in assay [3] it was 40 nM; in assay [4] it was 55 nM; in assay [5], 674 nM; in assay [6], 3690 nM. Further, the figures for the IC50 in assay [7] (setting [8]) and in assay [7] (setting [9]) were 3140 nM and 3970 nM, respectively.

Turning to `N#Cc1cc2cnc(Nc3ccc4c(c3)CCNC4)nc2n(C2CC3CC3C2)c1=O` (stereo not drawn) [Compound No. 342, 8-(bicyclo[3.1.0]hexan-3-yl)-7-oxo-2-((1,2,3,4-tetrahydroisoquinolin-6-yl)amino)-7,8-dihydropyrido[2,3-d]pyrimidine-6-carbonitrile], the IC50 in assay [1] is 41 nM; in assay [2] (read-out: CDK1/B IC50), 439 nM; in assay [3], 10 nM; in assay [4], 22 nM; in assay [5] it was below 1 nM; in assay [6], 485 nM. Further, the IC50 in assay [7] (setting [8]) worked out at 415 nM; in assay [7] (setting [9]), 192 nM.

For the compound `N#Cc1cc2cnc(Nc3ccc4c(c3)CNCC4)nc2n(C2CCCC2)c1=O` [Compound No. 29, 8-cyclopentyl-7-oxo-2-((1,2,3,4-tetrahydroisoquinolin-7-yl)amino)-7,8-dihydropyrido[2,3-d]pyrimidine-6-carbonitrile], the IC50 in assay [1] was 42 nM; in assay [2] (read-out: CDK1/B IC50), 441 nM; in assay [3], 7 nM; in assay [4], 13 nM; in assay [5], 2.5 nM; in assay [6] it was 1280 nM. The compound also registered an IC50 in assay [7] (setting [8]) of 240 nM.
